Measurements: PMC12645437, “Orthogonal IMiD-Degron Pairs Induce Selective Protein Degradation in Cells” (ACS Chemical Biology, 2025)

Tests used:
[1] = biological target: WEIK mutant ZF degron fused to EGFP (Homo sapiens, UniProt Q96SW2+Q9UKT9, N149E/Q147W/Q150I/S154K); experiment: Ratiometric EGFP:mCherry flow cytometry degradation assay, 18 h
[2] = biological target: T1, WEIS-EGFP degron in Jurkat cells (Homo sapiens, UniProt Q96SW2+Q9UKT9, N149E/Q147W/Q150I); experiment: Time-course EGFP/mCherry flow cytometry degradation assay; format: cell-based
T1 construct: pLVX-Sprout-IKZF3 130-189aa Q147W N149E Q150I (WEIS); expressed in transfected cells
Experimental: 6 WEIS degron and compound 23 selectivity. Jurkat, ESC, and MM.1S cells were treated for 16 h with the corresponding compound or DMSO control, and the protein abundance was analyzed using multiplexed TMTpro quantification mass spectrometry. […] (A) Jurkat cells were treated with compound 23. (B). Jurkat cells treated with pomalidomide. (C) ESCs were treated with compound 23. (D) ESCs were treated with pomalidomide. (E) MM.1S cells treated with compound 23. […] Values shown are the mean of three biological replicates. WEIS degron and compound 23 kinetic degradation profile. (G) Jurkat cells were transduced with the WEIS-EGFP degron, then incubated with a concentration range of compound 23 (1 pM – 10 μM) for 1–24 h [as shown] and analyzed using flow cytometry. The DMSO-normalized ratiometric values of EGFP/mCherry are shown. (H). The half-maximal (DC50) values from the assay in […] are shown. Mean and SD values are plotted from three biological replicates. […] (J) Jurkat cells were lentivirally transduced with TRIM28 with either N-terminal or C-terminal WEIS degron tag (or untagged control) and HiBit peptide tag, then incubated with a concentration curve of compound 23 (100 pM – 10 μM) for 24 h and analyzed using a HiBit luminescence assay. […] HEK293T cells were lentivirally transduced with one of three POI fusion constructs–NanoLuc, CDK9, or HPRT1–with an N-terminal HA tag and a C-terminal WEIS degron, then incubated with a concentration range of compound 23 (1 nM – 10 μM) for 18 h and analyzed using HA antibody immunoblotting. […] HEK293T cells were lentivirally transduced with NanoLuc with an N-terminal HA tag and a C-terminal WEIS degron, then incubated with a concentration curve of compound 23 (1 nM – 10 μM) for either 6 or 18 h, and analyzed using a NanoGlo luminescence assay. […]
We performed a time-course experiment in which Jurkat cells transduced with the WEIS-EGFP degron were treated with compound 23 at a range of concentrations (1 pM–10 μM) at a selection of time points, and the ratiometric degradation values of EGFP/mCherry were assessed using flow cytometry, as above. […]

[3] = biological target: T2, HA-CDK9-WEIS (Homo sapiens, UniProt Q96SW2+Q9UKT9, N149E/Q147W/Q150I); experiment: HA antibody immunoblotting in HEK293T cells; format: cell-based; conditions: 18 h, Western blot
T2 construct: IKZF3 130aa-142aa 170-189aa fused to EGFP; CDK9 (protein of interest, fusion partner N-terminal of the degron); expressed in transfected cells; host or cells: HEK293T, lentivirally transduced (Cilantro2-derived plasmid, Addgene #74450, EGFP replaced by HA-POI-WEIS)

[4] = biological target: WNQS mutant ZF degron fused to EGFP (Homo sapiens, UniProt Q96SW2+Q9UKT9, Q147W); experiment: Ratiometric EGFP:mCherry flow cytometry degradation assay, 18 h
[5] = biological target: WNIQ mutant ZF degron fused to EGFP (Homo sapiens, UniProt Q96SW2+Q9UKT9, Q147W/Q150I/S154Q); experiment: as above
Sequence of WNIQ mutant ZF degron fused to EGFP (Q9UKT9 130-189 Q147W/Q150I/S154Q): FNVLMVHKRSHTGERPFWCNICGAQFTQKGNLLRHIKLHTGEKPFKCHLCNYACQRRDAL
Sequence of WNIQ mutant ZF degron fused to EGFP (Q96SW2 whole entry, the tested form may be a part): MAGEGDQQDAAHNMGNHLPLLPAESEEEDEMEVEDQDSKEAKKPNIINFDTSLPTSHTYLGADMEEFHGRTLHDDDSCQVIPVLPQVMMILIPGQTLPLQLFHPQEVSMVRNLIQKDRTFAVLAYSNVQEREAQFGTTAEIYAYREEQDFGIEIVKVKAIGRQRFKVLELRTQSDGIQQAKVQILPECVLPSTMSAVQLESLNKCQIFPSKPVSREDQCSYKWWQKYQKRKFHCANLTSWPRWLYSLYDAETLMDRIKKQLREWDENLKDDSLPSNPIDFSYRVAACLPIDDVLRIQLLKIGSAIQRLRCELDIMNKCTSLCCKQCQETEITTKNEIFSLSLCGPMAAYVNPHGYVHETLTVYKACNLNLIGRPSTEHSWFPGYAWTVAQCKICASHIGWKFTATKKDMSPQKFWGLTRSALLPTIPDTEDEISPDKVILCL
Sequence of WNIQ mutant ZF degron fused to EGFP (Q16531 whole entry partner, the tested form may be a part): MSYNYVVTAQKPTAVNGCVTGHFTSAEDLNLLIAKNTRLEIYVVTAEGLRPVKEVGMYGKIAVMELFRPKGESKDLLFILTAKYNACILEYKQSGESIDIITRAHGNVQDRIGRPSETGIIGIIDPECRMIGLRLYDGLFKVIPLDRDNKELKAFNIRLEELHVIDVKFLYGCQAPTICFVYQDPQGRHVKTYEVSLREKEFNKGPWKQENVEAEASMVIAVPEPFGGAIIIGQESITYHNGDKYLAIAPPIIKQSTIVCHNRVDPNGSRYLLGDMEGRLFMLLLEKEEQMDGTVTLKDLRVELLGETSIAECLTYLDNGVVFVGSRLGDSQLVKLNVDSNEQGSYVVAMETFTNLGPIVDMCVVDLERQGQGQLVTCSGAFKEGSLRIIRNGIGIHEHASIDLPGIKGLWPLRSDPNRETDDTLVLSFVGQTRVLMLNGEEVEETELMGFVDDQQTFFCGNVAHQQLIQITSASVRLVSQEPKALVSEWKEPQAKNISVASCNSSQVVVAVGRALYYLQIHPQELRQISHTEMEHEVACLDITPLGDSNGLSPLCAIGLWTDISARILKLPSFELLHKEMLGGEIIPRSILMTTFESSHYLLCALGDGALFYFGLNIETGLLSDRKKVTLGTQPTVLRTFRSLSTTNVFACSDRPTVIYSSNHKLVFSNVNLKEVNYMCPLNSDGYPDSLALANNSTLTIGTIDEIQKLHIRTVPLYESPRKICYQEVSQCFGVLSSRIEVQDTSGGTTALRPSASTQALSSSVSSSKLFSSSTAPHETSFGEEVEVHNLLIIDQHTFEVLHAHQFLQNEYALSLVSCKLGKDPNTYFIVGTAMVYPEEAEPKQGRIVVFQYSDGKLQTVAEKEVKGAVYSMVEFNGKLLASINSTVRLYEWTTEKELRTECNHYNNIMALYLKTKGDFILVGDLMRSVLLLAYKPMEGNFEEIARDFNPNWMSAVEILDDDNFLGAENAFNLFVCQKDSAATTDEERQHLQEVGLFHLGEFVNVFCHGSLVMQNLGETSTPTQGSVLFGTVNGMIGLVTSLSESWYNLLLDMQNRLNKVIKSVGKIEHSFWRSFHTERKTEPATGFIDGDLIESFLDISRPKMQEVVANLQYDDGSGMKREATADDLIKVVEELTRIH

Sequence of WEIK mutant ZF degron fused to EGFP (Q9UKT9 130-189 Q147W/N149E/Q150I/S154K): as the sequence (Q9UKT9 130-189 Q147W/Q150I/S154Q) above, with N20E, Q25K counted along it
Sequence of WEIK mutant ZF degron fused to EGFP (Q96SW2 whole entry, the tested form may be a part): as the sequence (Q96SW2 whole entry, the tested form may be a part) above
Sequence of WEIK mutant ZF degron fused to EGFP (Q16531 whole entry partner, the tested form may be a part): as the sequence (Q16531 whole entry partner, the tested form may be a part) above
T1 sequence (Q9UKT9 130-189 Q147W/N149E/Q150I): as the sequence (Q9UKT9 130-189 Q147W/Q150I/S154Q) above, with N20E, Q25S counted along it
T1 sequence (Q96SW2 whole entry): as the sequence (Q96SW2 whole entry, the tested form may be a part) above
T1 sequence (Q16531 whole entry partner): as the sequence (Q16531 whole entry partner, the tested form may be a part) above
Sequence of WNQS mutant ZF degron fused to EGFP (Q9UKT9 130-189 Q147W): as the sequence (Q9UKT9 130-189 Q147W/Q150I/S154Q) above, with I21Q, Q25S counted along it
Sequence of WNQS mutant ZF degron fused to EGFP (Q96SW2 whole entry, the tested form may be a part): as the sequence (Q96SW2 whole entry, the tested form may be a part) above
Sequence of WNQS mutant ZF degron fused to EGFP (Q16531 whole entry partner, the tested form may be a part): as the sequence (Q16531 whole entry partner, the tested form may be a part) above
T2 sequence (Q9UKT9 130-189 Q147W/N149E/Q150I): as the sequence (Q9UKT9 130-189 Q147W/Q150I/S154Q) above, with N20E, Q25S counted along it
T2 sequence (Q96SW2 whole entry, the tested form may be a part): as the sequence (Q96SW2 whole entry, the tested form may be a part) above

| Compound | Selectivity (WT/mutant) ([1]; DC50(WT)/DC50(WEIK)) | DC50 ([1]; WEIK, Jurkat, 18 h) [nM] | pDC50 ([1]; WEIK, Jurkat, 18 h) | DC50 ([2]; time point 1 h) [nM] | DC50 ([2]; time point 6 h) [nM] | DC50 ([2]; time point 24 h) [nM] | D max [3] [%] | DC50 [3] [nM] | Selectivity (WT/mutant) ([4]; DC50(WT)/DC50(WNQS)) | DC50 ([4]; WNQS, Jurkat, 18 h) [nM] | pDC50 ([4]; WNQS, Jurkat, 18 h) | Selectivity (WT/mutant) ([5]; DC50(WT)/DC50(WNIQ)) | DC50 ([5]; WNIQ, Jurkat, 18 h) [nM] | pDC50 ([5]; WNIQ, Jurkat, 18 h) |
| --- | --- | --- | --- | --- | --- | --- | --- | --- | --- | --- | --- | --- | --- | --- |
| CC(C)(C)c1ccc2c(c1)C(=O)N(C1CCC(=O)NC1=O)C2=O (centres unmarked) [Compound 19] | 18.1 | 42 | 7.38 |  |  |  |  |  |  |  |  |  |  |  |
| CN1CCN(c2ccc3c(c2)C(=O)N(C2CCC(=O)NC2=O)C3=O)CC1 (centres unmarked) [Compound 23] |  |  |  | 10.3 | 2.3 | 18.3 | 70 | 299 | 5 | 126 | 6.90 | 11.8 | 53.7 | 7.27 |
